Data on 1 compound can be found in paper PMC10823468, “Design, Synthesis, and Evaluation of New 1H-Benzo[d]imidazole Based PqsR Inhibitors as Adjuvant Therapy for Pseudomonas aeruginosa Infections” (Journal of Medicinal Chemistry, 2024).

The subject of data set [1] is A549 human lung epithelial carcinoma cell line. As to the kind of experiment: A549 cytotoxicity assay (resazurin / alamar blue). Type of data set: cell-based. Conditions: at concentrations up to 100 μM (1, 50, 100 μM), 24 h. As for the experimental part:
Establishing the safety profile of new chemical entities is paramount for further drug development. […] The assay employed resazurin reduction, a sensitive fluorometric assay widely used as a standard methodology in drug discovery research.[35] This assay relies on the ability of living cells to reduce resazurin to the fluorescent compound, resorufin, which indicates the rate of the metabolic activity as a means to quantify cell viability.
Cell viability was assessed according to Nimesh et al.[51] on A549 adenocarcinomic human alveolar basal epithelial cell line. The viability of the A549 cell line was assessed after overnight incubation with three concentrations (1, 50, and 100 μM) of the corresponding compound using alamar blue (resazurin) dye. Cells were maintained in the Dulbecco’s Modified Essential Medium (DMEM) supplemented with 10% fetal bovine serum (FBS) and 1% penicillin–streptomycin–neomycin (PSN). After that, 100 μL of suspended cells with a final concentration (1 × 10^4 cells/wall) were seeded in 96-well plates with 100 μL of (1, 50, 100 μM) concentrations of the tested compound was dispensed in sextuplicate. […] The plates were further incubated for 4–6 h and the intensity of the fluorescence was measured using an excitation light of 510 nm and measuring the fluorescence output at 590 nm. The cell viability in each well was normalized to the DMSO reading.
For orientation: The colour change of resazurin is a common sign of viable cells or microbes.

Another data set relates to PAO1-L biofilms. As to the kind of experiment: Biofilm viability assay, method 1 (ciprofloxacin, LIVE/DEAD, CLSM). Type of data set: cell-based, Pseudomonas aeruginosa. Conditions: 6 and 24 h. How it is done: Biofilms are bacterial communities that are highly tolerant to antibiotics.[33] […] Therefore, pharmacological interference with the pqs machinery could sensitize PA biofilms to antibiotics.[34] To evaluate this effect, PAO1-L biofilms were grown for […] in the presence of 6f (method 1). Following treatment with the broad-spectrum antibiotic ciprofloxacin (Cip), the viability of biofilm bacteria was determined using LIVE/DEAD BacLight staining and confocal laser scanning microscopy (CLSM). The effect of 6f on biofilm viability as a single treatment or in combination with subinhibitory concentration of Cip was examined at two different time points (6 and 24 h after treatment) to establish whether this PqsR antagonist enhanced the activity of the antibiotic. […] It is noteworthy that the effect was greater at 6 h treatment compared with 24 h.
Figure 6 (A) Representative CLSM 3D Z-stack images of PAO1-L biofilms after 24 h growth with or without 6f and further treatment for 6 or 24 h with no treatment (control), 6f (10 μM), ciprofloxacin (Cip: 60 μg/mL), or a combination of 6f and Cip (10 μM and 60 μg/mL, respectively). Live bacteria are depicted in green (SYTO9 dye) and dead cells are shown in red color (propidium iodide stain). (B) Biofilm viability assay. Bar chart showing PAO1-L biofilm viability quantified after treatment with different conditions for 6 or 24 h. […]

SMILES strings stand for the structures.

Regarding `CC(C)n1c(NCC(O)COc2ccc(CC#N)cc2)nc2ccc(Cl)cc21` (stereo not drawn) [Compound 6f, 2-(4-(3-((6-Chloro-1-isopropyl-1H-benzo[d]imidazol-2-yl)amino)-2-hydroxypropoxy)phenyl) Acetonitrile], in data set [1], the “cytotoxicity for A549 cells” value is reported as “not cytotoxic”. In addition, the “biofilm viability, combination with ciprofloxacin” value in the data set with PAO1-L biofilms (6f 10 μM + Cip 60 μg/mL) is given as “significant potentiation of antibiotic activity”. For the same compound, in the data set with PAO1-L biofilms (6f 10 μM alone), the “biofilm viability, single treatment” value is “no significant effect”.
